Data reported in patent US20180312473A1, “PHENAZINE DERIVATIVES AS ANTIMICROBIAL AGENTS” (priority 2015, published 2018).
Converted amounts (≈) assume the structure as drawn. Like-named read-outs stand apart in the source and are kept apart here.

Legend:
[1] = Spectrophotometric determination of dissociation constants (pKa); type: physicochemical; settings: UV-vis at varying pH, 1:1 water:methanol buffers
Method: Dissociation constants (pKa) for select analogues were determined by implementing UV-vis spectroscopy at varying pH values. Buffers were prepared using potassium phosphate monobasic (KH2PO4) and sodium phosphate dibasic (Na2HPO4) in a 1:1 solution of water:methanol to achieve a pH range of 3.78 to 10.94. Compounds were added from 10 mM stock solutions in dimethyl sulfoxide (12.5 μL) to 987.5 μL of each buffer to yield a final compound concentration of 125 μM. Full spectral scans were performed for each evaluated analogue at pH 3.78 and pH 10.94 from 300 to 800 nm to determine λmax values for the protonated phenol (HA; e.g., HP 2 below) and the deprotonated phenolate species (A^−; e.g., conjugate base of HP 2 below). The change in absorption at each determined λmax in relation to pH was then monitored in each buffer and then plotted as absorbance versus pH for each species. The pKa was first estimated by determining the pH of the point of intersection of the two linear curves as shown. The visual estimation was confirmed by plotting pH versus log [A^−/HA]. The resulting plot yielded a linear regression line with a Y-intercept corresponding to a calculated pKa value.

[2] = test system: Enterococcus faecium (ATCC 700221), VRE; assay: MIC assay (broth microdilution, CLSI); type: cell-based
[3] = test system: MRSE (S. epidermidis ATCC 35984) planktonic cells and biofilms; assay: Calgary Biofilm Device (CBD) assay, MBC/MBEC; type: cell-based, Staphylococcus epidermidis; settings: for MBC: Staphylococcus epidermidis
E. faecium 700221 (VRE) = assay: MIC assay with Tiron or metal(II) cation co-treatment; type: cell-based, Enterococcus faecium; settings: Enterococcus faecium, VRE
K. pneumoniae 13883 = assay: MIC assay (broth microdilution, CLSI); type: cell-based, Klebsiella pneumoniae; settings: Klebsiella pneumoniae, 13883; read-out: K. pneumoniae 13883 MIC
[4] = test system: MRSA BAA-44 planktonic cells and biofilms; assay: Calgary Biofilm Device (CBD) assay, MBC/MBEC; settings: Staphylococcus aureus, read-out: MRSA BAA-44 MBC
human red blood cells = assay: Hemolysis assay with red blood cells; settings: human, 1 h, 200 μM, pH 7.2
In short: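 Washed human red blood cells exposed to compounds added from DMSO stocks, 1 h at 37° C.; supernatant OD read at 405 nm after centrifugation. % hemolysis calculated relative to DMSO (0%) and Triton X (100%) controls, from three independent experiments.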

[5] = test system: VRE (E. faecium ATCC 700221) planktonic cells and biofilms; assay: Calgary Biofilm Device (CBD) assay, MBC/MBEC; type: cell-based, Enterococcus faecium; settings: c lowest concentration tested; for MBC: Enterococcus
[6] = test system: methicillin-resistant S. aureus (MRSA) strains; assay: MIC assay, values summarised over MRSA strains; type: cell-based, Staphylococcus aureus
E. coli UAEC-1 = assay: MIC assay (broth microdilution, CLSI); type: cell-based; settings: Escherichia coli, UAEC1; read-out: E. coli UAEC-1 MIC
MRSA BAA-44 = assay: MIC assay (broth microdilution, CLSI); settings: Staphylococcus aureus, read-out: MIC, MRSA BAA-44
[7] = test system: MRSA BAA-1707 planktonic cells and biofilms; assay: Calgary Biofilm Device (CBD) assay, MBC/MBEC; settings: Staphylococcus aureus, read-out: MRSA BAA-1707 MBC
in vitro = type: cell-based; settings: human
HeLa cells = assay: in vitro; type: cell-based; settings: human, 24 h
A. baumannii 19606 = assay: MIC assay (broth microdilution, CLSI); type: cell-based, Acinetobacter baumannii; settings: Acinetobacter baumannii, 19606; read-out: A. baumannii 19606 MIC
P. aeruginosa (PAO1) = assay: MIC assay (broth microdilution, CLSI); type: cell-based; settings: Pseudomonas aeruginosa, PAO1; read-out: PAO1 MIC
[8] = test system: MRSA-2 planktonic cells and biofilms; assay: Calgary Biofilm Device (CBD) assay, MBC/MBEC; type: cell-based, Staphylococcus aureus; settings: Staphylococcus aureus, MRSA
[9] = test system: MRSA-2 (methicillin-resistant Staphylococcus aureus clinical isolate); assay: MIC assay (broth microdilution, CLSI); type: cell-based; settings: Staphylococcus aureus, MRSA
[10] = test system: Staphylococcus epidermidis (ATCC 12228); assay: MIC assay (broth microdilution, CLSI); type: cell-based; settings: Staphylococcus epidermidis, ATCC12228
MRSA BAA-1707 = assay: MIC assay (broth microdilution, CLSI); settings: Staphylococcus aureus, read-out: MIC, MRSA BAA-1707
[11] = test system: MRSA-1 (methicillin-resistant Staphylococcus aureus clinical isolate); assay: MIC assay (broth microdilution, CLSI); type: cell-based; settings: read-out: MIC, MRSA-1
[12] = test system: M. tuberculosis H37Ra (ATCC 25177); assay: Mycobacterium tuberculosis MIC assay; type: cell-based
Method: (§1) The culture was then diluted with fresh medium until an OD600 of 0.01 was reached. […] The final DMSO concentration was maintained at 0.5%. […] Three rows were reserved for each compound. […] OD600 absorbance was recorded using SPECTRAMAX M5 (Molecular Devices). Data obtained from three independent experiments were analyzed using Excel.
as §1, with “EXCEL.” for “Excel.”

[13] = test system: Staphylococcus epidermidis (ATCC 35984), MRSE; assay: MIC assay (broth microdilution, CLSI); type: cell-based; settings: Staphylococcus epidermidis, Table 7; read-out: MIC, MRSE 35984
[14] = test system: S. aureus clinical isolate SA 138; assay: MIC assay (broth microdilution, CLSI); settings: Staphylococcus aureus, read-out: MIC, SA 138
[15] = test system: S. aureus clinical isolate SA 129; assay: MIC assay (broth microdilution, CLSI); settings: Staphylococcus aureus, read-out: MIC, SA 129
[16] = test system: MRSA-2 persister cells (stationary cultures); settings: 100 μM; for MRSA-2 stationary killing: reduction of viable cells over 24 h
MRSA-2 = assay: MIC assay with Tiron or metal(II) cation co-treatment; type: cell-based, Staphylococcus aureus; settings: Staphylococcus aureus; MRSA-2, 200 μM iron(II); read-out: MIC with Fe^2+
[17] = Enterococcus faecium, Table 2A, read-out: MIC, Enterococcus faecium (ATCC 700221)
[18] = Table 7, b lowest concentration tested, read-out: MIC, VRE 700221
[19] = Table 8, read-out: MRSE 35984 MBC
[20] = Table 8, read-out: VRE 700221 MBC
[21] = Table 8, a/b 2-/4-fold range in independent experiments, read-out: MRSA-2 MBC
[22] = Enterococcus faecium, Table 2B, b lowest concentration tested, read-out: MIC, Enterococcus faecium (ATCC 700221)
[23] = Table 7, b lowest concentration tested, read-out: MIC, S. epidermidis 12228

Row | Compound | MIC [2, 17] [µM] | MIC [2, 18] [µM] | MBC [3, 19] [µM] | MBC [4] [µM] | melting point [°C] | % Hemolysis (200 μM) (human red blood cells) [%] | % Hemolysis at 200 μM (human red blood cells) [%] | MBC [5, 20] [µM] | growth inhibition activity against at least one MRSA strain [6] | MIC (MRSA BAA-44) [µM] | MBC [7] [µM] | IC50 at 24 h (in vitro) [µM] | IC50 (HeLa cells) [µM] | MBC [8, 21] [µM] | MIC [2, 22] [µM] | MIC [10, 23] [µM] | MIC (MRSA BAA-1707) [µM] | other results
1 | O=[N+]([O-])c1ccc(O)cc1 [4-nitrophenol, reference compound] | – | – | – | – | – | – | – | – | – | – | – | – | – | – | – | – | – | pKa [1]: 7.62
2 | Oc1c(Br)cc(I)c2nc3ccccc3nc12 [Compound 8, 2-Bromo-4-iodo-1-hydroxyphenazine] | 6.25 (≈ 2.51 µg/mL) | 6.25 (≈ 2.51 µg/mL) | 11.7 (≈ 4.69 µg/mL) | 46.9 (≈ 18.8 µg/mL) | 186 to 188 | 2.9 | 2.9 | 3 (≈ 1.2 µg/mL) | sub-micromolar | 1.17 (≈ 0.469 µg/mL) | 23.5 (≈ 9.42 µg/mL) | > 100 | > 100 | 31.3 (≈ 12.6 µg/mL) | – | – | – | MIC (E. faecium 700221 (VRE); E. faecium 700221, 200 μM CuSO4, read-out: MIC with Cu^2+): 3.13 µM; MIC (E. faecium 700221 (VRE); E. faecium 700221, 1 mM Tiron, read-out: MIC with Tiron): 3.13 µM; MIC (E. faecium 700221 (VRE); E. faecium 700221, no additive, read-out: MIC): 3.13 µM; MIC (K. pneumoniae 13883): > 100 µM; MIC (E. coli UAEC-1): > 100 µM; MIC (A. baumannii 19606): 50 µM (≈ 20.1 µg/mL); MIC (P. aeruginosa (PAO1)): > 100 µM; MBC ([8]; Table 4, read-out: MBC, MRSA-2): 31.3 µM (≈ 12.6 µg/mL)
3 | Oc1c(Br)cc(Br)c2nc3cc(Br)c(Br)cc3nc12 [Compound 17, 2,4,7,8-tetrabromo-1-hydroxyphenazine] | 0.39 (≈ 0.2 µg/mL) | 0.39 (≈ 0.2 µg/mL) | – | 50 (≈ 25.6 µg/mL) | – | ≤1 | – | 0.39 (≈ 0.2 µg/mL) | – | 25 (≈ 12.8 µg/mL) | 6.25 (≈ 3.2 µg/mL) | > 100 | > 100 | – | 0.39 (≈ 0.2 µg/mL) | 0.08 (≈ 0.0409 µg/mL) | 12.5 (≈ 6.4 µg/mL) | MIC ([9]; read-out: MIC, MRSA-2): 6.25 µM (≈ 3.2 µg/mL); MIC ([9]; read-out: MIC, MRSA-2, Table 2B, a midpoint of 2-fold range, * partial growth inhibition at highest concentration): 6.25 µM (≈ 3.2 µg/mL); MIC ([9]; read-out: MIC, MRSA-2, Table 7, a midpoint of 2-fold range, b lowest concentration tested): 6.25 µM (≈ 3.2 µg/mL); MBC ([3]; read-out: MBC, Staphylococcus epidermidis (ATCC 35984)): 1.56 µM (≈ 0.798 µg/mL); MBC ([3]; read-out: MRSE 35984 MBC): 1.56 µM (≈ 0.798 µg/mL); MBC ([3]; read-out: MRSE MBC): 1.56 µM (≈ 0.798 µg/mL); MBEC, Staphylococcus epidermidis (ATCC 35984) ([3]; Table 4): 6.25 µM; MRSE MBEC ([3]; Table 5): 6.25 µM; MIC ([10]; Table 2A, read-out: MIC, Staphylococcus epidermidis (ATCC 12228)): 0.05 to 0.1 µM (≈ 0.0256 to 0.0512 µg/mL); MBC ([5]; Table 5, read-out: VRE MBC): 0.39 µM (≈ 0.2 µg/mL); VRE MBEC ([5]; Table 5): 0.39/0.39 μM; MIC ([11]; Staphylococcus aureus, MRSA): 12.5 µM (≈ 6.4 µg/mL); MIC ([11]; Table 2B, b lowest concentration tested): 12.5 µM (≈ 6.4 µg/mL); MIC ([12]; Mycobacterium tuberculosis, 168 h, M. tuberculosis H37Ra, 7 days, read-out: Mtb MIC): > 50 µM; MIC ([12]; Mycobacterium tuberculosis, Table 7, read-out: MIC, M. tuberculosis H37Ra): > 50 µM; MIC ([12]; Table 7, read-out: MIC, M. tuberculosis H37Ra): >50 µM
4 | Oc1c(Br)cc(Br)c2nc3ccc(Br)cc3nc12 [Compound 18, 2,4,8-Tribromo-1-hydroxyphenazine] | – | – | – | – | 239 to 241 | – | 2.1 | – | sub-micromolar | – | 12.5 (≈ 5.41 µg/mL) | – | – | 50 (≈ 21.6 µg/mL) | – | 3.13 (≈ 1.35 µg/mL) | 0.2 (≈ 0.0866 µg/mL) | MIC ([6]; Staphylococcus aureus, MRSA, range over the MRSA strains/isolates tested, read-out: MIC against MRSA strains): 0.15 to 0.78 µM (≈ 0.0649 to 0.338 µg/mL); MIC [13]: 3.13 µM (≈ 1.35 µg/mL)
5 | CCCCc1cc(Br)c(O)c2nc3ccccc3nc12 [Compound 22, 2-Bromo-4-butyl-1-hydroxyphenazine] | – | 0.78 (≈ 0.258 µg/mL) | 11.7 (≈ 3.88 µg/mL) | – | 135 to 137 | – | – | 2 (≈ 0.662 µg/mL) | – | – | 46.9 (≈ 15.5 µg/mL) | – | – | 46.9 (≈ 15.5 µg/mL) | – | – | – | MIC [14]: 3.13 µM (≈ 1.04 µg/mL); MIC [15]: 1.17 µM (≈ 0.388 µg/mL)
6 | CC(=O)NC[C@H]1CN(c2ccc(N3CCOCC3)c(F)c2)C(=O)O1 [Linezolid, linezolid, reference compound] | – | 3.13 (≈ 1.06 µg/mL) | – | – | – | ≤1 | – | 469 (≈ 158 µg/mL) | – | – | 31.3 (≈ 10.6 µg/mL) | – | – | – | 3.13 (≈ 1.06 µg/mL) | – | – | MIC ([9]; Table 7, a midpoint of 2-fold range, b lowest concentration tested, read-out: MIC, MRSA-2): 3.13 µM (≈ 1.06 µg/mL); log reduction of MRSA-2 persisters after 3 hours ([16]; 3 hours): 2 log; MRSA-2 stationary killing [16]: ~1 log; MRSA-2 stationary killing ([16]; listed as linezolid): 1 log; MIC (MRSA-2): 6.25 µM
